Results: patent publication US20260231994A1, “TASTE-ENHANCING COMPOSITION, METHOD FOR PRODUCING SAME, FOOD PRODUCT, AND METHOD FOR ENHANCING TASTE OF FOOD PRODUCT” (HOUSE FOODS GROUP INC., priority 2023, published 2026)

Columns and labels:
Type in all cases: in vivo
[1] = Experiment 1 sensory evaluation of “boosting of flavor” (cyclic dipeptides, coriander); conditions: for “boosting of flavor” in words: added to reduced-sodium curry roux dispersion, compared with no addition, unheated coriander or common curry roux; for “boosting of flavor” Average: cyclic dipeptide aqueous solution (concentration as in heat-treated coriander) at final 0.2% (w/w) in reduced-sodium curry roux dispersion, score 1-5; for “boosting of flavor” Evaluation: cyclic dipeptide aqueous solution at final 0.2% (w/w) in reduced-sodium curry roux dispersion, class of average score
Procedure: Flour roux was prepared by putting 20 g of flour and 30 g of beef tallow in a pan, then heating with stirring at 120° C. To this flour roux were added 10 g of sodium chloride, 10 g of sugar, 10 g of cornstarch, 5 g of curry powder and 15 g of other seasoning ingredients (vegetable and fruit extracts, yeast extract and seafood extract), and after heat-treatment to 105° C., the mixture was cooled and solidified, to form a block of common curry roux.
The sodium chloride equivalent per 100 g of this curry roux was 10.6 g.
Reduced-sodium curry roux was prepared according to the same procedure, except that the amount of sodium chloride was reduced to 7 g from the amount in the common curry roux in (1).
The sodium chloride equivalent per 100 g of this reduced-sodium curry roux was 7.7 g.
Out of the cyclic dipeptides included in the heat-treated coriander prepared in 1.1. described above, which were confirmed to be increased in 1.2. above, an aqueous solution of the respective 14 cyclic dipeptides shown in the table described below was prepared. The concentration of the cyclic dipeptide in each aqueous solution was set to be equal to its concentration in the heat-treated coriander prepared in 1.1. described above, which was estimated from the ratio of the peak area of the cyclic dipeptide to the peak area of the internal standard (47 μg/g L-lysine-^13C6 monohydrochloride) confirmed in 1.2. described above.
Two dispersions of 44 g of the reduced-sodium curry roux in (2) dispersed in 300 g of hot water were prepared.
To one of them was added the heat-treated coriander or the powdered unheated coriander prepared in 1.1. described above, or the cyclic dipeptide aqueous solution (corresponding to the heat-treated coriander) prepared in (3) above, so that the final concentration was 0.2% (w/w), and a sensory evaluation was carried out.
Forty-four grams of the common curry roux in (1) was dispersed in 300 g of hot water.
The dispersion of reduced-sodium curry roux dispersed in hot water and the dispersion of common curry roux dispersed in hot water were used as comparative controls, and the strength of the flavor was evaluated by four evaluators on the basis of the following evaluation criteria from the viewpoint of “boosting of flavor.” The term “boosting of flavor” in this experiment is an effect concerted by the combination of sodium chloride and other foodstuffs in curry roux, and is an aspect of “saltiness.” Thus, the “flavor” in this experiment can be also expressed as “saltiness.”
The average of the evaluated scores was defined as “F” when it was 1.0 or lower, “C” when it was 1.1 or higher and 1.9 or lower, “B” when it was 2.0 or higher and 2.5 or lower, “A” when it was 2.6 or higher and 2.9 or lower, and “AA” when it was 3.0 or higher.

[2] = Experiment 6 sensory evaluation of cyclic dipeptides, “top sharp saltiness”
Method in brief: (§1)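 Reduced-sodium curry roux (44 g in 300 g hot water) was spiked with cyclic dipeptide solutions matching heat-treated coriander or paprika levels, at 0.5% or 1.0% (w/w) final. Three evaluators scored each sample against unspiked reduced-sodium and common roux. Mean scores were graded F to AA.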

[3] = Experiment 6 sensory evaluation of cyclic dipeptides, “middle fullness (enhanced thickness)”
Method in brief: as §1

[4] = Experiment 6 sensory evaluation of cyclic dipeptides, “boosting of last flavor (aftertaste)”
Method in brief: as §1

[5] = Additive amount coriander 0.5% (heat-treated coriander equivalent aqueous solution, final 0.5% (w/w)), reduced-sodium curry roux
[6] = Additive amount coriander 0.5%, reduced-sodium curry roux
[7] = heat-treated coriander equivalent aqueous solution of cyclic dipeptide, final 1.0% (w/w) in reduced-sodium curry roux dispersion
[8] = heat-treated coriander equivalent aqueous solution of cyclic dipeptide, final 1.0% (w/w) in reduced-sodium curry roux dispersion, 3 evaluators
[9] = Additive amount paprika 0.5% (heat-treated paprika equivalent aqueous solution, final 0.5% (w/w)), reduced-sodium curry roux
[10] = Additive amount paprika 0.5%, reduced-sodium curry roux
[11] = heat-treated paprika equivalent aqueous solution of cyclic dipeptide, final 1.0% (w/w) in reduced-sodium curry roux dispersion
[12] = heat-treated paprika equivalent aqueous solution of cyclic dipeptide, final 1.0% (w/w) in reduced-sodium curry roux dispersion, 3 evaluators

Substance | “boosting of flavor” Average [1] [points] | “boosting of flavor” Evaluation [1] | Top sharp saltiness Average [2, 5] [points] | Top sharp saltiness Evaluation [2, 6] | Top sharp saltiness Evaluation [2, 7] | Top sharp saltiness Average [2, 8] [points] | Middle fullness Average [3, 6] [points] | Middle fullness Evaluation [3, 6] | Middle fullness Evaluation [3, 7] | Middle fullness Average [3, 8] [points] | Bosting of last flavor Average [4, 6] [points] | Bosting of last flavor Evaluation [4, 6] | Bosting of last flavor Evaluation [4, 7] | Bosting of last flavor Average [4, 8] [points] | Top sharp saltiness Average [2, 9] [points] | Top sharp saltiness Evaluation [2, 10] | Top sharp saltiness Evaluation [2, 11] | Top sharp saltiness Average [2, 12] [points] | Middle fullness Average [3, 10] [points] | Middle fullness Evaluation [3, 10] | also measured
cyclic (Pro-His) [Coriander ID 15] | 3.0 | AA (“AA” when it was 3.0 or higher) | 2.2 | B (“B” when it was 2.0 or higher and 2.5 or lower) | B (“B” when it was 2.0 or higher and 2.5 or lower) | 2.0 | 2.5 | B (“B” when it was 2.0 or higher and 2.5 or lower) | AA (“AA” when it was 3.0 or higher) | 3.0 | 2.5 | B (“B” when it was 2.0 or higher and 2.5 or lower) | AA (“AA” when it was 3.0 or higher) | 3.0 |  |  |  |  |  |  | “boosting of flavor” in words [1]: comparable flavor to that of the dispersion of common curry roux
cyclic (Thr-Pro) [Coriander ID 14] | 3.3 | AA (“AA” when it was 3.0 or higher) |  |  |  |  |  |  |  |  |  |  |  |  | 2.2 | B (“B” when it was 2.0 or higher and 2.5 or lower) | B (“B” when it was 2.0 or higher and 2.5 or lower) | 2.0 | 2.0 | B (“B” when it was 2.0 or higher and 2.5 or lower) | “boosting of flavor” in words [1]: comparable flavor to that of the dispersion of common curry roux; Middle fullness Evaluation [3, 11]: B (“B” when it was 2.0 or higher and 2.5 or lower); Middle fullness Average [3, 12]: 2.5 points; Bosting of last flavor Average [4, 10]: 2.2 points; Bosting of last flavor Evaluation [4, 10]: B (“B” when it was 2.0 or higher and 2.5 or lower); Bosting of last flavor Evaluation [4, 11]: B (“B” when it was 2.0 or higher and 2.5 or lower); Bosting of last flavor Average [4, 12]: 2.5 points
cyclic (Ala-Leu/Ile) [Coriander ID 32] | 2.8 | A (“A” when it was 2.6 or higher and 2.9 or lower) | 2.1 | B (“B” when it was 2.0 or higher and 2.5 or lower) | B (“B” when it was 2.0 or higher and 2.5 or lower) | 2.5 | 2.2 | B (“B” when it was 2.0 or higher and 2.5 or lower) | A (“A” when it was 2.6 or higher and 2.9 or lower) | 2.8 | 2.1 | B (“B” when it was 2.0 or higher and 2.5 or lower) | AA (“AA” when it was 3.0 or higher) | 3.2 |  |  |  |  |  |  | 
cyclic (Phe-Pro) [Coriander ID 40] | 2.8 | A (“A” when it was 2.6 or higher and 2.9 or lower) |  |  |  |  |  |  |  |  |  |  |  |  | 2.5 | B (“B” when it was 2.0 or higher and 2.5 or lower) | A (“A” when it was 2.6 or higher and 2.9 or lower) | 2.7 | 2.3 | B (“B” when it was 2.0 or higher and 2.5 or lower) | Middle fullness Evaluation [3, 11]: AA (“AA” when it was 3.0 or higher); Middle fullness Average [3, 12]: 3.2 points; Bosting of last flavor Average [4, 10]: 2.3 points; Bosting of last flavor Evaluation [4, 10]: B (“B” when it was 2.0 or higher and 2.5 or lower); Bosting of last flavor Evaluation [4, 11]: AA (“AA” when it was 3.0 or higher); Bosting of last flavor Average [4, 12]: 3.0 points
cyclic (Ala-Asn) [Coriander ID 56] |  |  | 2.3 | B (“B” when it was 2.0 or higher and 2.5 or lower) | B (“B” when it was 2.0 or higher and 2.5 or lower) | 2.0 | 2.3 | B (“B” when it was 2.0 or higher and 2.5 or lower) | A (“A” when it was 2.6 or higher and 2.9 or lower) | 2.7 | 2.3 | B (“B” when it was 2.0 or higher and 2.5 or lower) | B (“B” when it was 2.0 or higher and 2.5 or lower) | 2.5 |  |  |  |  |  |  | 
cyclic (Glu-Glu) |  |  |  |  |  |  |  |  |  |  |  |  |  |  | 2.0 | B (“B” when it was 2.0 or higher and 2.5 or lower) | B (“B” when it was 2.0 or higher and 2.5 or lower) | 2.2 | 2.3 | B (“B” when it was 2.0 or higher and 2.5 or lower) | Middle fullness Evaluation [3, 11]: B (“B” when it was 2.0 or higher and 2.5 or lower); Middle fullness Average [3, 12]: 2.5 points; Bosting of last flavor Average [4, 10]: 2.5 points; Bosting of last flavor Evaluation [4, 10]: B (“B” when it was 2.0 or higher and 2.5 or lower); Bosting of last flavor Evaluation [4, 11]: B (“B” when it was 2.0 or higher and 2.5 or lower); Bosting of last flavor Average [4, 12]: 2.2 points
cyclic (Val-Phe) [Coriander ID 38] |  |  |  |  |  |  |  |  |  |  |  |  |  |  | 2.8 | A (“A” when it was 2.6 or higher and 2.9 or lower) | A (“A” when it was 2.6 or higher and 2.9 or lower) | 2.8 | 3.2 | AA (“AA” when it was 3.0 or higher) | Middle fullness Evaluation [3, 11]: A (“A” when it was 2.6 or higher and 2.9 or lower); Middle fullness Average [3, 12]: 2.8 points; Bosting of last flavor Average [4, 10]: 3.3 points; Bosting of last flavor Evaluation [4, 10]: AA (“AA” when it was 3.0 or higher); Bosting of last flavor Evaluation [4, 11]: AA (“AA” when it was 3.0 or higher); Bosting of last flavor Average [4, 12]: 3.2 points
cyclic (Gly-Tyr) [Coriander ID 44] |  |  | 1.7 | C (“C” when it was 1.1 or higher and 1.9 or lower) | B (“B” when it was 2.0 or higher and 2.5 or lower) | 2.2 | 2.0 | B (“B” when it was 2.0 or higher and 2.5 or lower) | B (“B” when it was 2.0 or higher and 2.5 or lower) | 2.2 | 2.3 | B (“B” when it was 2.0 or higher and 2.5 or lower) | A (“A” when it was 2.6 or higher and 2.9 or lower) | 2.8 |  |  |  |  |  |  | 
cyclic (Glu-His) [Coriander ID 6] |  |  | 3.2 | AA (“AA” when it was 3.0 or higher) | AA (“AA” when it was 3.0 or higher) | 4.0 | 3.3 | AA (“AA” when it was 3.0 or higher) | AA (“AA” when it was 3.0 or higher) | 3.8 | 3.0 | AA (“AA” when it was 3.0 or higher) | AA (“AA” when it was 3.0 or higher) | 3.7 |  |  |  |  |  |  | 
